Results on 10 molecules are retold here after US7659078B1, “Method and kit for determination of prostacyclin in plasma” (University of Kentucky Research Foundation, priority 2002, dated 2010).

B1: 1:500 conjugate: NHS ester of 6-keto-PGF1α conjugated to cysteine-free mutant aequorin at 1:500 mole ratio aequorin:6-keto-PGF1α (conjugate)
chain: VKLTPDFDNPKWIGRHKHMFNFLDVNHNGRISLDEMVYKASDIVINNLGATPEQAKRHKDAVEAFFGGAGMKYGVETEWPEYIEGWKRLASEELKRYSKNQITLIRLWGDALFDIIDKDQNGAISLDEWKAYTKSDGIIQSSEDSEETFRVSDIDESGQLDVDEMTRQHLGFWYTMDPASEKLYGGAVP

The first data set concerns anti-6-keto-PGF1α antibody. Kind of data set: Cross-reactivity of related prostaglandins in the 6-keto-PGF1α aequorin bioluminescent immunoassay. The format is binding, sheep. The note with it: calculated at 50% B/B0; cross reactant used in the dose response curve instead of 6-keto-PGF1α; assay buffer. How it is done:
Dose-Response Curve: A dose-response curve was generated for 6-keto-PGF1α by simultaneously incubating 100 μL of 6-keto-PGF1α antibody (1:10,000 dilution), 50 μL of different concentrations of the serially diluted analyte, 6-keto-PGF1α, and 50 μL of 1×10^−10 M coelenterazine bound 6-keto-PGF1α-aequorin conjugate (1:500) on microtiter plates coated with the secondary antibody. The plate was incubated in dark at room temperature for two hours with shaking at 300 rpm. The plate was washed three times with the wash buffer to remove any unbound components. The light intensity was measured as described before.
Presence of various prostaglandins other than 6-keto-PGF1α in the blood can cause non-specific binding with the 6-keto-PGF1α antibody and interfere with the detection of 6-keto-PGF1α, giving extremely high values of 6-keto-PGF1α. Therefore, it becomes important to confirm that the amount of 6-keto-PGF1α obtained from our assay is only due to 6-keto-PGF1α and no other prostaglandin. The cross-reactivities of other prostaglandins similar in structure to 6-keto-PGF1α were determined by preparing standard solutions of the compounds in the assay buffer ranging from 100,000 to 100 pg/mL and using them in this assay for 6-keto-PGF1α. The measured 6-keto-PGF1α concentration at 50% B/B0 was then calculated. The percent cross-reactivities were calculated by comparison of measured cross-reactant concentration and the actual concentration (known amount) of the cross-reactant in the sample (Table 1). It must be noted that the prostaglandins occur at different times in the arachidonic acid pathway and in different concentrations. […] The assay can, therefore, be used to measure 6-keto-PGF1α directly from plasma.
Cross-reactivities of related prostaglandins were measured by using varying concentrations of 50 μL of the cross reactant in the dose response curve instead of 6-keto-PGF1α. The percent cross-reactivities were calculated at 50% B/B0.
Consider `CCCCCC(=O)CCC1C(O)CC(O)C1CCCCCCC(=O)O` (stereo not shown) [13,14-dihydroxy-15-keto-Prostaglandin F1], for which the Percent cross-reactivity is on record as 0.45%. On to `CCCCC[C@H](O)/C=C/[C@H]1C(=O)C[C@H](O)[C@@H]1C/C=C\CCCC(=O)O` [Prostaglandin D2], for which the Percent cross-reactivity is recorded as 7.75%. On the same count and under the same terms, as for `CCCCC[C@H](O)/C=C/[C@@H]1[C@@H](CCCCCCC(=O)O)[C@@H](O)C[C@H]1O` [Prostaglandin F1], the figure is 5.4%. Turning to `CCCCC[C@H](O)/C=C/[C@@H]1[C@@H](CC(=O)CCC(=O)O)[C@@H](O)C[C@H]1O` [2,3-dinor-6-keto-Prostaglandin F1, 2,3-dinor-6-keto-Prostaglandin F1α], the Percent cross-reactivity is reported as 10.1%. For `CCCCC[C@H](O)/C=C/[C@@H]1[C@@H](CC(=O)CCCCC(=O)O)[C@@H](O)C[C@H]1O` [6-keto-Prostaglandin F1, 6-keto-Prostaglandin F1α], the Percent cross-reactivity is 100%.

As to `CCCCC[C@H](O)/C=C/[C@H]1[C@H](O)CC(=O)[C@@H]1CCCCCCC(=O)O` [Prostaglandin E1], the Percent cross-reactivity is recorded as 6.75%. The same measure, in the same setting: the result for `CCCCCC(=O)CCC1C(O)CC(O)C1CC(=O)CCCCC(=O)O` (stereo not shown) [6,15-diketo-13,14-dihydro-Prostaglandin F1] reads 1.83%; that for `CCCCC[C@H](O)/C=C/[C@@H]1[C@@H](C/C=C\CCCC(=O)O)[C@@H](O)C[C@H]1O` [Prostaglandin F2], 3.41%.

Tested on in the next data set: not listed separately
Put plainly: 6-keto-PGF1α in plasma of PPH patients on intravenous prostacyclin, measured directly without extraction. It is filed as in vivo, human. As to conditions: PPH patient plasma samples. How it is done: The analysis of 6-keto-PGF1α directly in plasma without extraction was performed by diluting the samples 1:200 times and using 50 μL in the dose-response curve along with 100 μL 6-keto-PGF1α of antibody and 50 μL of 6-keto-PGF1α-aequorin conjugate. The analysis was performed in the same manner as the dose-response curve described before. The amount of 6-keto-PGF1α in the samples was calculated from the standard dose response curve generated in plasma. The appropriate dilution factor was taken into consideration when calculating the amount of 6-keto-PGF1α present in each sample.
For in vivo analysis plasma samples were obtained from five patients with severe pulmonary arterial hypertension and 7 normal controls. […] All patient samples were analyzed in the same manner as the dose response curve in plasma. […] The amount of 6-keto-PGF1α in the samples was calculated as described before for sample analysis without extraction. […]
In order to obtain recovery data further analysis of the samples was performed. Two of the normal plasma samples and two patient plasma samples were first analyzed using the assay without extraction. […] The amount of 6-keto-PGF1α in the samples was calculated as described before for sample analysis without extraction. The samples were analyzed in triplicates. […]
Take `CCCCC[C@H](O)/C=C/[C@@H]1[C@H]2C/C(=C/CCCC(=O)O)O[C@H]2C[C@H]1O` [Prostacyclin]: the “levels of 6-keto-PGF1α in plasma versus prostacyclin dose” value was “increased with increase in the prostacyclin dose”.

For another data set, the system named is anti-6-keto-PGF1α antibody. Kind of data set: Binder dilution study of 6-keto-PGF1α-aequorin conjugates. It is filed as binding, sheep. As to conditions: 1×10^−10 M conjugate, 2 h room temperature, secondary antibody-coated plate; compared with 1:50 and 1:200 conjugates. How it is done: For the binder dilution studies aliquots of 100 μL of different concentrations of serially diluted anti-6-keto-PGF1α antibody, produced in sheep and 50 μL of 1×10^−10 M 6-keto-PGF1α-aequorin conjugate were placed simultaneously in microtiter plates pre-coated with a secondary antibody, donkey anti-sheep IgG. All dilutions were done in the assay buffer. The plates were incubated in dark at room temperature for 2 h with shaking at 300 rpm. Then the plates were washed with wash buffer (30 mM Tris-HCL buffer, pH 7.0, containing 2 mM EDTA, 0.15 M NaCl, and 0.1% Tween 20) three times to remove any unbound primary antibody or any unbound conjugate. Finally, the light intensity was measured as described earlier for the calibration plot.
The next step was to study the interaction between the anti-6-keto-PGF1α antibody and the conjugates. […] After washing the plate to remove any unbound antibody or conjugate the luminescence was measured. […] The effect of increased or decreased amounts of 6-keto-PGF1α antibody and/or conjugate on the dose-response curve was also evaluated. […] The dose-response curve obtained for 6-keto-PGF1α as depicted in FIG. 3, is sigmoidal in shape, with the luminescence intensity being lower at high concentrations of 6-keto-PGF1α and increasing as the concentration of 6-keto-PGF1α decreases. […]
B1: the “binding to 6-keto-PGF1α antibody (binder-dilution curves)” value is recorded as “maximum binding”.
